Test results from patent publication US8106056B2, “Combination preparations comprising bifeprunox and a dopamine agonist” (Solvay Pharmaceuticals B.V., priority 2006, dated 2012).
“Also recorded” adds a separate entry of the source.

Legend:
[1] = tested on: MPTP-treated common marmosets; assay: Locomotor activity in MPTP-treated common marmosets (automated activity cages); type: in vivo, common marmosets (Callithrix jacchus)
Experimental: (§1) These animals were L-DOPA responsive and not test drug naive. They had not been experimentally primed for dyskinesia although some dyskinesia was present.
(§2) Drug treatment: Bifeprunox mesylate was suspended in 10% sucrose solution and administered orally by gavage in a volume of 2.0 ml/kg. L-DOPA: L-3,4-Dihydroxyphenylalanine (L-dopa) methylester (Sigma Chemical Co, UK) was dissolved in 10% sucrose solution and administered orally by gavage in a volume of 2.0 ml/kg. Carbidopa: (Merck, Sharp and Dohme, UK) was administered orally as a suspension in 10% sucrose solution in a volume of 2.0 ml/kg. Domperidone: (2.0 mg/kg po, Sigma UK) was dissolved in 10% sucrose and administered 60 min prior to bifeprunox in a volume of 2.0 ml/kg, Bifeprunox (4 or 8 mg/kg po free base) or its vehicle (10% sucrose) was administered alone and in combination with L-DOPA (7.5 mg/kg po free base, given in combination with carbidopa, 12.5 mg/kg po) to MPTP-treated marmosets (n=6). Animals were treated with bifeprunox or its vehicle 90 min prior to administration of L-DOPA or its vehicle administration. Carbidopa was administered 30 minutes prior to administration of L-DOPA. Domperidone was administered 60 min prior to bifeprunox administration.
Behavioral Studies: In all studies, animals were acclimatised to behavioral study cages for 1 hour prior to treatment. The animals were placed individually into activity cages (50×60×70 cm) fitted with a clear perspex door to allow clear visibility for observation. Each cage was equipped with 8 horizontally orientated infrared photocell emitters and their corresponding detectors arranged so as to permit maximum assessment of movement. Locomotor activity was assessed as the number of light beam interruptions caused by movement of the animals accumulated in 10-minute intervals for up to 7 hours. The animals were allowed a 60-minute acclimatisation period in the activity cages during which baseline activity was assessed, before drug administration. ‘On’ Threshold was defined as 3 times baseline activity in MPTP-treated marmosets. Hyperactivity was defined as 3 times normal activity in naive marmosets. ‘On’ time was the period of time in minutes that activity was above the ‘On’ Threshold. Animals were treated with bifeprunox, vehicle and/or L-DOPA. Following drug treatment, animals were assessed for locomotor activity and disability as described below for up to 6 h following drug administration. The animals used in the study were in the automated activity cages for no longer than 8 h on any study day, and were allowed at least 3 days recovery period between drug treatments to ensure appropriate animal welfare consideration. The locomotor activity, motor disability and presence of dyskinesia were assessed as follows:
Locomotor Activity: In all studies the animals were acclimatised to behavioral study cages for 1 hour prior to bifeprunox treatment. Animals were then treated with appropriate drugs. Following treatment, animals were assessed for antiparkinsonian activity for up to 6 h using automated activity cages and by the rating of disability by an observer blinded to the treatment.
(§3) Data and Statistical Analysis: Data are presented as median locomotor activity (counts/30 min) or disability score (score over 10 min/30 min) over the 7 hour period of the experiment, or as total locomotor activity (counts/420 min) or disability (total score over 420 min). Data were analysed by Kruskall Wallis ANOVA and post-hoc Man-Whitney test where appropriate. Analyses were corrected for multiple comparisons using the formula: Acceptable probability=α/number of comparisons where α=5% A separate group of animals from those used in the study were treated with vehicle and were used for statistical comparison.

dopamine D2/3 receptors = details: cited from earlier work
[2] = tested on: MPTP-treated common marmosets; assay: Disability rating in MPTP-treated common marmosets; type: in vivo, common marmosets (Callithrix jacchus)
Experimental: as §1, §2
Disability and dyskinesia scores: Disability and dyskinesia was assessed before, and during the last 10 minutes in every 30 min period after bifeprunox administration for up to 6 hours following drug treatment. The following disability rating scales were used:
Rating of disability: The disability of animals was scored as follows; alertness (normal 0, sleepy 2); reaction (normal 0, reduced 1, slow 2, absent 3); checking movements (present 0, reduced 1, absent 2); attention and eye movements (normal 0, abnormal 1); posture (normal 0, abnormal trunk+1, abnormal limbs+1, abnormal tail+1, or grossly abnormal 4); balance/co-ordination (normal 0, impaired 1, unstable 2, spontaneous falls 3); vocalisation (normal 0, reduced 1, absent 2); motility (normal 0, bradykinesia/hyperkinesia 1, akinesia/hyperkinesia 2). Sedation was noted if present.
as §3

[3] = biological target: T1, serotonin 5-HT1A receptors (Homo sapiens, UniProt P08908); details: cited from earlier work
T1 sequence (P08908 1-422): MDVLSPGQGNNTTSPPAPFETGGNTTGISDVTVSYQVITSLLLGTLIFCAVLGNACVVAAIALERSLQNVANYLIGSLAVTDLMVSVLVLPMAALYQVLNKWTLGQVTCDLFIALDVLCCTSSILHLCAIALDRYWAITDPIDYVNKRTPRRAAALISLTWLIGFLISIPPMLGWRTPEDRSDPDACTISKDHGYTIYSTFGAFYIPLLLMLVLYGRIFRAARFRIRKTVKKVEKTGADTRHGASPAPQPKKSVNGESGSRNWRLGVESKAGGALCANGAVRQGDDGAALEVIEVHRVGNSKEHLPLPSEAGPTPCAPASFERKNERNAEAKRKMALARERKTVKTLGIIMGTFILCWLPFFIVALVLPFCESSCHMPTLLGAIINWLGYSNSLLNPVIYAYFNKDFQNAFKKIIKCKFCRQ

[4] = bifeprunox 4 mg/kg po 90 min prior to L-DOPA 7.5 mg/kg po plus carbidopa 12.5 mg/kg po
[5] = bifeprunox 4 mg/kg po alone, p<0.05, Mann Whitney
[6] = bifeprunox 8 mg/kg po 90 min prior to L-DOPA 7.5 mg/kg po plus carbidopa 12.5 mg/kg po
[7] = bifeprunox 8 mg/kg po alone, p<0.05, Mann Whitney
[8] = L-DOPA 7.5 mg/kg po plus carbidopa 12.5 mg/kg po 30 min prior

In the case of `O=c1[nH]c2cccc(N3CCN(Cc4cccc(-c5ccccc5)c4)CC3)c2o1` [bifeprunox, 7-[4-([1,1′-biphenyl]-3-ylmethyl)-1-piperazinyl]-2(3H)-benzoxazolone], the “Locomotor activity compared to L-DOPA alone and bifeprunox (4 mg/kg po) alone” value [1, 4] is reported as “tended to increase”, the “locomotor On-Time compared to the single treatments” value [1, 4] is reported as “slightly greater than that seen after L-DOPA alone and bifeprunox” and the “locomotor activity compared to baseline” value [1, 4] is reported as “increased”. The “median duration of activity (locomotor On-Time)” value [1, 4] was 390 min/420 min, the “locomotor activity compared to vehicle administration” value ([1]; bifeprunox 4 mg/kg po alone) was “increased” and the “median duration of activity (locomotor On-Time)” value ([1]; bifeprunox 4 mg/kg po alone) was 240 min/420 min. For the same compound, the “Total locomotor activity and locomotor 'On-Time' versus vehicle” value [1, 5] was “greater than in vehicle-treated animals”, the “Total locomotor activity and duration of activity (On-time) compared to bifeprunox (8 mg/kg po) alone and L-DOPA plus carbidopa alone” value [1, 6] was “not different” and the “locomotor On-Time compared to bifeprunox alone” value [1, 6] was “slightly shorter than bifeprunox alone”. The “locomotor activity compared to baseline” value [1, 6] was “increased”, the “median duration of activity (locomotor On-Time)” value [1, 6] was 300 min/420 min and the “locomotor activity compared to vehicle administration” value ([1]; bifeprunox 8 mg/kg po alone) was “increased”. The “median duration of activity (locomotor On-Time)” value ([1]; bifeprunox 8 mg/kg po alone) was 345 min/420 min, the “Total locomotor activity versus vehicle” value [1, 7] was “greater than vehicle-treated animals” and the “total locomotor activity and locomotor 'On-Time' compared to L-DOPA alone” value ([1]; bifeprunox 4 or 8 mg/kg po given in combination with L-DOPA) was “tended to increase”. For the same compound, the “duration of activity ('on'-time) following L-DOPA” value ([1]; co-administration with L-DOPA) was “increased”, the “peak locomotor activity as observed after L-DOPA alone” value ([1]; combined treatment with L-DOPA, hyperactivity was not observed) was “reduced” and the “functional activity at dopamine D2/3 receptors” value (dopamine D2/3 receptors) was “partial agonist”. For the same compound, the “Duration of activity (disability On-Time)” value [2, 4] was 360 min/420 min, the “Duration of activity (disability On-Time) compared to bifeprunox alone” value [2, 4] was “tended to increase” and the “disability scores over the period of the study” value [2, 4] was “decreased”. For the same compound, the “Median duration of activity (disability On-Time)” value ([2]; bifeprunox 4 mg/kg po alone) was 210 min/420 min, the “disability scores compared to vehicle administration” value [2, 5] was “decreased” and the “Duration of activity (disability On-Time)” value [2, 6] was 165 min/420 min. For the same compound, the “Duration of activity (disability On-Time) compared to bifeprunox (8 mg/kg po) alone or L-DOPA plus carbidopa” value [2, 6] was “not different”, the disability scores [2, 6] was “decreased” and the “Duration of activity (disability On-Time)” value ([2]; bifeprunox 8 mg/kg po alone) was 225 min/420 min. For the same compound, the “Total decrease in disability versus vehicle” value ([2]; bifeprunox 8 mg/kg po alone) was “lower than vehicle-treated animals”, the “disability scores compared to vehicle treatment” value [2, 7] was “decreased” and the “functional activity at serotonin 5-HT1A receptors” value [3] was “partial agonist; also recorded: full agonism”.

With `N[C@@H](Cc1ccc(O)c(O)c1)C(=O)O` [L-DOPA, L-3,4-Dihydroxyphenylalanine, reference compound] the “locomotor activity compared to vehicle administration” value [1, 8] was “increased”, the “median duration of activity (locomotor On-Time)” value [1, 8] was 180 min/420 min and the “Total locomotor activity and locomotor 'on-time' versus vehicle” value ([1]; L-DOPA 7.5 mg/kg po plus carbidopa 12.5 mg/kg po, p<0.05, Mann Whitney) was “greater than vehicle-treated animals”. The “disability 'On-Time'” value [2, 8] was 120 min/420 min, the “time at which peak disability score was reached after administration (median)” value [2, 8] was 75 min and the “disability scores compared to vehicle administration” value ([2]; L-DOPA 7.5 mg/kg po plus carbidopa 12.5 mg/kg po 30 min prior, p<0.05, Mann Whitney) was “decreased”.
